According to ChEMBL document CHEMBL1212936, “Discovery of 2-[1-(4-chlorophenyl)cyclopropyl]-3-hydroxy-8-(trifluoromethyl)quinoline-4-carboxylic acid (PSI-421), a P-selectin inhibitor with improved pharmacokinetic properties and oral efficacy in models of vascular injury” (J Med Chem, 2010):
Values after ≈ are worked out from the molar mass of the structure shown.

What was measured:
[1] = Physiological stability of the compound in simulated intestinal bile salts-lecithin mixture fluid assessed as compound remaining after 16 hrs in presence of 20% acetonitrile; assay type: physicochemical; conditions: read-out: Stability
[2] = Physiological stability of the compound at pH 4.5 assessed as compound remaining after 12 hrs in presence of 20% acetonitrile; assay type: physicochemical; conditions: read-out: Stability
[3] = Physiological stability of the compound at pH 7.4 assessed as compound remaining after 8 hrs in presence of 20% acetonitrile; assay type: physicochemical; conditions: read-out: Stability
[4] = Physiological stability of the compound at pH 6.6 assessed as compound remaining after 4 hrs in presence of 20% acetonitrile; assay type: physicochemical; conditions: read-out: Stability
[5] = Physiological stability of the compound at pH 1 assessed as compound remaining after 16 hrs in presence of 20% acetonitrile; assay type: physicochemical; conditions: read-out: Stability
[6] = Physiological stability of the compound in simulated intestinal bile salts-lecithin mixture fluid assessed as compound remaining after 4 hrs in presence of 20% acetonitrile; assay type: physicochemical; conditions: read-out: Stability
[7] = Genotoxicity in Salmonella Typhimurium by Ames test; assay type: toxicity; conditions: salmonella enterica subsp. enterica serovar typhimurium
[8] = target: T1, P-selectin glycoprotein ligand 1 (Homo sapiens) (UniProt Q14242); assay: Inhibition of recombinant PSGL-1 at 250 uM by surface plasmon resonance assay
T1 sequence (whole entry): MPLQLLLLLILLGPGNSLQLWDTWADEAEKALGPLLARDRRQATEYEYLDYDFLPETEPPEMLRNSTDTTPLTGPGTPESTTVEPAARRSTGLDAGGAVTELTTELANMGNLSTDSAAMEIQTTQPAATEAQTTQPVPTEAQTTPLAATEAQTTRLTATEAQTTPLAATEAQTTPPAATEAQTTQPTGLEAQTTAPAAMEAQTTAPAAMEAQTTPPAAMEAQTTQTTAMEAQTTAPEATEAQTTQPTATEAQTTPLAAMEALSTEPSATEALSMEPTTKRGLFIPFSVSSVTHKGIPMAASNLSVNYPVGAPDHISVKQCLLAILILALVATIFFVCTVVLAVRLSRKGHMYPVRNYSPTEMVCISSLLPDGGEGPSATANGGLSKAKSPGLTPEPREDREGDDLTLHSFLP

[9] = Physiological stability of the compound at pH 7.4 assessed as compound remaining after 16 hrs in presence of 20% acetonitrile; assay type: physicochemical; conditions: read-out: Stability
[10] = Clearance in C57B6 mouse at 2 mg/kg, iv and 10 mg/kg, po; assay type: ADME, organism-based; conditions: in vivo
[11] = Physiological stability of the compound in simulated intestinal bile salts-lecithin mixture fluid assessed as compound remaining after 20 hrs in presence of 20% acetonitrile; assay type: physicochemical; conditions: read-out: Stability
Canis familiaris = assay: Dose normalized AUC in Beagle dog measured per mg of plasma at 2 mg/kg, iv and 10 mg/kg, po; assay type: ADME, organism-based, Canis lupus familiaris; conditions: in vivo
Plasma [12] = assay: Drug level in Sprague-Dawley rat plasma at 30 mg/kg, po; assay type: ADME, organism-based; design: dose 30 mg/kg, route oral; conditions: in vivo
[13] = Physiological stability of the compound at pH 9 assessed as compound remaining after 16 hrs in presence of 20% acetonitrile; assay type: physicochemical; conditions: read-out: Stability
[14] = Physiological stability of the compound at pH 7.4 assessed as compound remaining after 20 hrs in presence of 20% acetonitrile; assay type: physicochemical; conditions: read-out: Stability
[15] = Permeability from basolateral to apical side in human Caco-2 cells; assay type: ADME, cell-based
[16] = Physiological stability of the compound at pH 6.6 assessed as compound remaining after 16 hrs in presence of 20% acetonitrile; assay type: physicochemical; conditions: read-out: Stability
Rattus norvegicus [17] = assay: Inhibition of leukocytes rolling flux in acute intravital microscopy model of Sprague-Dawley rat cremasteric postcapillary venules at 15 mg/kg, po after 35 mins relative to control; assay type: functional
[18] = Physiological stability of the compound in simulated intestinal bile salts-lecithin mixture fluid assessed as compound remaining after 12 hrs in presence of 20% acetonitrile; assay type: physicochemical; conditions: read-out: Stability
[19] = Physiological stability of the compound at pH 9 assessed as compound remaining after 4 hrs in presence of 20% acetonitrile; assay type: physicochemical; conditions: read-out: Stability
[20] = Permeability from apical to basolateral side in human Caco-2 cells; assay type: ADME, cell-based
[21] = Aqueous solubility of the compound at pH 9; assay type: physicochemical; conditions: aqueous solution, read-out: solubility
Rattus norvegicus [22] = assay: Inhibition of leukocytes rolling flux in acute intravital microscopy model of Sprague-Dawley rat cremasteric postcapillary venules at 7.5 mg/kg, po after 35 mins relative to control; assay type: functional
[23] = Physiological stability of the compound in simulated intestinal fluid assessed as compound remaining after 24 hrs in presence of 20% acetonitrile; assay type: physicochemical; conditions: read-out: Stability
[24] = target: Voltage-gated inwardly rectifying potassium channel KCNH2 (Homo sapiens, UniProt Q12809); assay: Inhibition of human ERG
[25] = Solubility of the compound in simulated intestinal fluid; assay type: physicochemical
[26] = Physiological stability of the compound in simulated intestinal fluid assessed as compound remaining after 20 hrs in presence of 20% acetonitrile; assay type: physicochemical; conditions: read-out: Stability
[27] = Oral bioavailability in Beagle dog at 10 mg/kg; assay type: ADME, organism-based, Canis lupus familiaris; conditions: in vivo
Plasma [28] = assay: Drug level in Sprague-Dawley rat plasma at 15 mg/kg, po; assay type: ADME, organism-based; design: dose 15 mg/kg, route oral; conditions: in vivo
[29] = Clearance in Beagle dog at 2 mg/kg, iv and 10 mg/kg, po; assay type: ADME, organism-based, Canis lupus familiaris; conditions: in vivo
[30] = Physiological stability of the compound in simulated intestinal fluid assessed as compound remaining after 12 hrs in presence of 20% acetonitrile; assay type: physicochemical; conditions: read-out: Stability
[31] = Physiological stability of the compound in simulated intestinal bile salts-lecithin mixture fluid assessed as compound remaining after 8 hrs in presence of 20% acetonitrile; assay type: physicochemical; conditions: read-out: Stability
[32] = Oral bioavailability in C57B6 mouse at 10 mg/kg; assay type: ADME, organism-based; conditions: in vivo
[33] = Physiological stability of the compound at pH 1 assessed as compound remaining after 20 hrs in presence of 20% acetonitrile; assay type: physicochemical; conditions: read-out: Stability
[34] = Physiological stability of the compound at pH 6.6 assessed as compound remaining after 20 hrs in presence of 20% acetonitrile; assay type: physicochemical; conditions: read-out: Stability
Plasma [35] = assay: Drug level in Sprague-Dawley rat plasma at 7.5 mg/kg, po; assay type: ADME, organism-based; design: dose 7.5 mg/kg, route oral; conditions: in vivo
[36] = Physiological stability of the compound at pH 9 assessed as compound remaining after 24 hrs in presence of 20% acetonitrile; assay type: physicochemical; conditions: read-out: Stability
[37] = Physiological stability of the compound at pH 1 assessed as compound remaining after 24 hrs in presence of 20% acetonitrile; assay type: physicochemical; conditions: read-out: Stability
Plasma [38] = assay: Drug level in Sprague-Dawley rat plasma at 3 mg/kg, po; assay type: ADME, organism-based; design: dose 3 mg/kg, route oral; conditions: in vivo
[39] = Oral bioavailability in cynomolgus monkey at 5 mg/kg; assay type: ADME, organism-based, Macaca fascicularis; conditions: in vivo
Rattus norvegicus [40] = assay: Inhibition of leukocytes rolling flux in acute intravital microscopy Sprague-Dawley rat model at 30 mg/kg, po after 35 mins relative to control; assay type: functional
[41] = Physiological stability of the compound at pH 9 assessed as compound remaining after 12 hrs in presence of 20% acetonitrile; assay type: physicochemical; conditions: read-out: Stability
[42] = Physiological stability of the compound at pH 4.5 assessed as compound remaining after 16 hrs in presence of 20% acetonitrile; assay type: physicochemical; conditions: read-out: Stability
[43] = Clearance in Sprague-Dawley rat at 3 mg/kg, iv and 10 mg/kg, po; assay type: ADME, organism-based; conditions: in vivo
Rattus norvegicus [44] = assay: Inhibition of leukocytes rolling flux in acute intravital microscopy model of Sprague-Dawley rat cremasteric postcapillary venules at 3 mg/kg, po after 35 mins relative to control; assay type: functional

Sequence of Voltage-gated inwardly rectifying potassium channel KCNH2 (Q12809 whole entry): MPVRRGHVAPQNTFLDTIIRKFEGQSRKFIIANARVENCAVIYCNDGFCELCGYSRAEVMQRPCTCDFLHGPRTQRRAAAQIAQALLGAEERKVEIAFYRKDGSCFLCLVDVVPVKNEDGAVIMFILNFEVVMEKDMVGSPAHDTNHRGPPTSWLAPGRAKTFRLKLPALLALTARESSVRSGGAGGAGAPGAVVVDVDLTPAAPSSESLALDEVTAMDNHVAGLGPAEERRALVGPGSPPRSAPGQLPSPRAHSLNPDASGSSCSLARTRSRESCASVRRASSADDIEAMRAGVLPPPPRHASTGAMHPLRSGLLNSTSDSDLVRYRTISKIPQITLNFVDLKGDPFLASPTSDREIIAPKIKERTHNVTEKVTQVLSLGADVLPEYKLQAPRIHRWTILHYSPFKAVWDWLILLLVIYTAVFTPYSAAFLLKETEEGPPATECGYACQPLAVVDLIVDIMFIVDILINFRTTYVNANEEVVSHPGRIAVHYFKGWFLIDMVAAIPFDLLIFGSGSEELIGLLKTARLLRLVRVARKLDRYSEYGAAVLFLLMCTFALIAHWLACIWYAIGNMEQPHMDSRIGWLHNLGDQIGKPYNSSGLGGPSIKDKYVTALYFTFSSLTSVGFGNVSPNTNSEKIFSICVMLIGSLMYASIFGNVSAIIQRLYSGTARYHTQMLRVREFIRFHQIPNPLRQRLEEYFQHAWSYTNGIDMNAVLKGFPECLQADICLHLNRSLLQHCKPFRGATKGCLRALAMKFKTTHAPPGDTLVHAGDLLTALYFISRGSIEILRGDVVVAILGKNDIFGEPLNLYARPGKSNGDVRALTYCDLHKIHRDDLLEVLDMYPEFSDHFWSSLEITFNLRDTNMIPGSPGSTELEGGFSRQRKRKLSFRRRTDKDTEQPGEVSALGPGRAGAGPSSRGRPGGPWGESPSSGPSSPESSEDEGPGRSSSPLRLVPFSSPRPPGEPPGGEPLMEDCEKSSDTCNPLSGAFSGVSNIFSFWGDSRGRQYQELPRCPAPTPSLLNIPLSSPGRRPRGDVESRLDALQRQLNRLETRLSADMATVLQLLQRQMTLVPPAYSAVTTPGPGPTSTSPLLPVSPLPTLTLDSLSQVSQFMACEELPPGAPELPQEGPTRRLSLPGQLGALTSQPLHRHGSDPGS

In the case of `O=C(O)c1c(O)c(C2(c3ccc(Cl)cc3)CC2)nc2c(C(F)(F)F)cccc12`, the remaining at 16 h [1] is reported as 102%, the remaining at 12 h [2] is reported as 99.2% and the remaining at 8 h [3] is reported as 102%. The remaining at 4 h [4] was 102%, the remaining at 16 h [5] was 102% and the remaining at 4 h [6] was 102%. For the same molecule, the Activity [7] was “Non-toxic”, the inhibition [8] was 55% and the remaining at 16 h [9] was 102%. For the same molecule, the clearance [10] was 7 mL/min/kg, the remaining at 20 h [11] was 103% and the AUC (Canis familiaris) was 28862 ng·h/mL. It also gave a Cp (Plasma [12]) of 38000 ng/mL, a remaining at 16 h [13] of 98.7% and a remaining at 20 h [14] of 102%. For the same molecule, the Papp B→A [15] was 9.8 ×10⁻⁶ cm/s, the remaining at 16 h [16] was 103% and the inhibition in vivo at 15 mg/kg (Rattus norvegicus [17]) was 51%. It also gave a remaining at 12 h [18] of 101%, a remaining at 4 h [19] of 98.5% and a Papp A→B [20] of 5.1 ×10⁻⁶ cm/s. For the same molecule, the solubility [21] was 1070 µg/mL (≈ 2.63 mM), the inhibition in vivo at 7.5 mg/kg (Rattus norvegicus [22]) was 47% and the remaining at 24 h [23] was 95%. For the same molecule, the “inhibition (INH)” value [24] was “Not Active”, the solubility [25] was 3950 µg/mL (≈ 9.69 mM) and the remaining at 20 h [26] was 99.4%. The bioavailability [27] was 100%, the Cp (Plasma [28]) was 24000 ng/mL and the clearance [29] was 0.9 mL/min/kg. It also gave a remaining at 12 h [30] of 101%, a remaining at 8 h [31] of 101% and a bioavailability [32] of 67%. It also gave a remaining at 20 h [33] of 102%, a remaining at 20 h [34] of 102% and a Cp (Plasma [35]) of 6000 ng/mL. For the same molecule, the remaining at 24 h [36] was 99.6%, the remaining at 24 h [37] was 101% and the Cp (Plasma [38]) was 3000 ng/mL. It also gave a bioavailability [39] of 96%, an inhibition in vivo at 30 mg/kg (Rattus norvegicus [40]) of 61% and a remaining at 12 h [41] of 98.8%. For the same molecule, the remaining at 16 h [42] was 101%, the clearance [43] was 0.7 mL/min/kg and the inhibition in vivo at 3 mg/kg (Rattus norvegicus [44]) was 12%.
